Data published in PubChem BioAssay AID1259408 (Genetic Toxicology Data Bank (GENE-TOX), 2018).
The source made the active and inactive calls. The rule behind the calls is not given here.

Tested on: GENE-TOX genotoxicity assays, various organisms and cells
Experiment: GENE-TOX mutagenicity studies
Conditions: for call: Assay Type: In vivo carcinogenicity studies
Text: GENE-TOX provides genetic toxicology (mutagenicity) test data from expert peer review of open scientific literature for more than 3,000 chemicals from the United States Environmental Protection Agency (EPA). GENE-TOX was established to select assay systems for evaluation, review data in the scientific literature, and recommend proper testing protocols and evaluation procedures for these systems.
GENE-TOX covers the years 1991 - 1998. It is no longer updated.
This is an archive assay for GENE-TOX mutagenicity studies.

[1] = Species/Cell Type: Saccharomyces cerevisiae, Assay Type: Mitotic recombination or gene conversion, Assay Code: YEH+, Evaluation Type: Evaluation A (Pre-1980)
[2] = Species/Cell Type: Saccharomyces cerevisiae, Assay Type: Reverse gene mutation, Assay Code: YERT, Evaluation Type: Evaluation A (Pre-1980)
[3] = Species/Cell Type: Nonhuman, Assay Code: CCG+, Evaluation Type: Evaluation A (Pre-1980)

**Q.** With `ClC(Cl)C(Cl)Cl` as the compound, how does the mutagenic call (Species/Cell Type: Escherichia coli polA (W3119 vs P3478), Assay Type: Rec-assay, DNA effects (bacterial DNA repair), Assay Code: RE1+, Evaluation Type: Evaluation A (Pre-1980)) read?
**A.** active; positive

**Q.** What about the call (Species/Cell Type: Nonhuman, Assay Code: CCG+L, Evaluation Type: Evaluation A (Pre-1980)) of the same compound?
**A.** active; positive

**Q.** What about the mutagenic call (Species/Cell Type: Saccharomyces cerevisiae, Assay Type: Mitotic recombination or gene conversion, Assay Code: YEC+, Evaluation Type: Evaluation A (Pre-1980)) of the same compound?
**A.** active; positive

**Q.** And the mutagenic call [1]?
**A.** active; positive

**Q.** And the mutagenic call (Species/Cell Type: Saccharomyces cerevisiae, Assay Type: Reverse gene mutation, Assay Code: YER+, Evaluation Type: Evaluation A (Pre-1980))?
**A.** active; positive

**Q.** Which mutagenic call [2] does the source give for `CCN(CC)Cc1cc(Br)ccc1OCC(=O)N/N=C/c1ccc(O)c(OC)c1` here?
**A.** no conclusion

**Q.** With `[Cl][Cd][Cl]` as the compound, how does the mutagenic call (Species/Cell Type: Bacillus subtilis (H17 vs M45), Assay Type: Rec-assay, spot test, DNA effects (bacterial DNA repair), Assay Code: REW+, Evaluation Type: Evaluation A (Pre-1980)) read?
**A.** active; positive

**Q.** And the mutagenic call (Species/Cell Type: Drosophila melanogaster, Assay Type: Aneuploidy, whole sex chromosome loss, chromosome aberrations, Assay Code: DAC+, Evaluation Type: Evaluation A (Pre-1980))?
**A.** active; positive

**Q.** What about the mutagenic call (Species/Cell Type: Human lymphocytes or leukocytes, Assay Type: Chromosome aberrations in vitro, Assay Code: CY7-, Evaluation Type: Evaluation A (Pre-1980)) of the same compound?
**A.** inactive; negative

**Q.** And the mutagenic call (Species/Cell Type: Mammalian polychromatic erythrocytes, Assay Type: Micronucleus test, chromosome aberrations, Assay Code: MNT-, Evaluation Type: Evaluation B (Post-1980))?
**A.** inactive; negative

**Q.** What about the mutagenic call (Species/Cell Type: Mammalian polychromatic erythrocytes, Assay Type: Micronucleus test, chromosome aberrations, Assay Code: MNTT, Evaluation Type: Evaluation A (Pre-1980)) of the same compound?
**A.** no conclusion

**Q.** What about the mutagenic call (Species/Cell Type: Mouse, Sex: Male, Assay Type: Sperm morphology, Assay Code: SPIT, Evaluation Type: Evaluation A (Pre-1980)) of the same compound?
**A.** no conclusion

**Q.** What about the call [3] of the same compound?
**A.** active; positive

**Q.** What about the mutagenic call (Species/Cell Type: Nonhuman, Assay Type: Sister-chromatid exchange (SCE) in vitro, Assay Code: SC2-, Evaluation Type: Evaluation B (Post-1980)) of the same compound?
**A.** inactive; negative

**Q.** What about the mutagenic call (Species/Cell Type: Rabbit, Sex: Male, Assay Type: Sperm morphology, Assay Code: SPR+, Evaluation Type: Evaluation A (Pre-1980)) of the same compound?
**A.** active; positive

**Q.** And the mutagenic call (Species/Cell Type: Rat, Sex: Male, Assay Type: Sperm morphology, Assay Code: SPA+, Evaluation Type: Evaluation A (Pre-1980))?
**A.** active; positive

**Q.** What about the mutagenic call (Species/Cell Type: Rodents, Sex: Male, Assay Type: Dominant lethal test, Assay Code: DLT-, Evaluation Type: Evaluation A (Pre-1980)) of the same compound?
**A.** inactive; negative

**Q.** And the mutagenic call [1]?
**A.** active; positive

**Q.** What about the mutagenic call (Species/Cell Type: Salmonella typhimurium (one or more of the five standard strains: TA98, TA100, TA1535, TA1537, and TA1538), Assay Type: Histidine reverse gene mutation, Ames assay, Assay Code: SALT, Evaluation Type: Evaluation A (Pre-1980)) of the same compound?
**A.** no conclusion

**Q.** What about the mutagenic call (Species/Cell Type: Salmonella typhimurium, Assay Type: Forward and reverse gene mutation, host-mediated assay, Assay Code: HMA-, Evaluation Type: Evaluation A (Pre-1980)) of the same compound?
**A.** inactive; negative

**Q.** And the mutagenic call (Species/Cell Type: Syrian hamster embryo (SA7/SHE) cells, Assay Type: Cell transformation, viral enhanced, Assay Code: CT7+, Evaluation Type: Evaluation A (Pre-1980))?
**A.** active; positive

**Q.** `CCCCOc1ccc(CC(=O)NOC(=O)CC)cc1` was tested. Which mutagenic call (Species/Cell Type: Nonhuman, Assay Type: Sister-chromatid exchange (SCE) in vitro, Assay Code: SC2+, Evaluation Type: Evaluation B (Post-1980)) did it give?
**A.** active; positive

**Q.** With `O=C(c1ccccc1)C(O)c1ccccc1` (centres undefined) as the compound, how does the call (Species/Cell Type: Nonhuman, Assay Code: CCG-L, Evaluation Type: Evaluation A (Pre-1980)) read?
**A.** inactive; negative

**Q.** How did the mutagenic call [2] turn out when `CCN(CC)Cc1cc(Br)ccc1OCC(=O)N/N=C/c1ccccc1O` was run?
**A.** no conclusion

**Q.** Which results are given for `C1=CC2OC2c2cc3ccc4ccccc4c3cc21` (centres undefined)?
**A.** mutagenic call (Species/Cell Type: Drosophila melanogaster, Assay Type: Sex-linked recessive lethal gene mutation, Assay Code: SRLT, Evaluation Type: Evaluation A (Pre-1980)): no conclusion; mutagenic call (Species/Cell Type: Mouse prostate cells, Assay Type: Cell transformation, Assay Code: CTM+, Evaluation Type: Evaluation A (Pre-1980)): active; positive

**Q.** `CCOP(=S)(OCC)SCSc1ccc(Cl)cc1` was tested. Which mutagenic call (Species/Cell Type: Human, Assay Type: Sister-chromatid exchange (SCE) in vitro, Assay Code: SC1+, Evaluation Type: Evaluation B (Post-1980)) did it give?
**A.** active; positive

**Q.** With `OC[C@H]1O[C@@H](n2cnc3cncnc32)[C@H](O)[C@@H]1O` as the compound, how does the mutagenic call (Species/Cell Type: Arabidopsis species, Assay Type: Gene mutation, Assay Code: ARM-, Evaluation Type: Evaluation A (Pre-1980)) read?
**A.** inactive; negative

**Q.** For `Nc1ccc(N=Nc2ccccc2)c(N)n1`, which call [3] is on record?
**A.** active; positive

**Q.** For `CCOC(=O)CC(SP(=O)(OC)OC)C(=O)OCC` (centres undefined), which call (Species/Cell Type: Nonhuman, Assay Code: CCG-, Evaluation Type: Evaluation A (Pre-1980)) is on record?
**A.** inactive; negative

**Q.** And the mutagenic call (Species/Cell Type: Nonhuman, Assay Type: Sister-chromatid exchange (SCE) in vitro, Assay Code: SC2+D, Dose Response: With dose response, Evaluation Type: Evaluation B (Post-1980))?
**A.** active; positive

**Q.** How did the mutagenic call (Species/Cell Type: Human, Assay Type: Sister-chromatid exchange (SCE) in vitro, Assay Code: SC1+D, Dose Response: With dose response, Evaluation Type: Evaluation A (Pre-1980)) turn out when `CCOC(=O)/C=C(C)/C=C/C=C(C)/C=C/c1c(C)cc(OC)c(C)c1C` was run?
**A.** active; positive

**Q.** And the mutagenic call (Species/Cell Type: Mammalian polychromatic erythrocytes, Assay Type: Micronucleus test, chromosome aberrations, Assay Code: MNTT, Evaluation Type: Evaluation B (Post-1980))?
**A.** no conclusion

**Q.** What about the mutagenic call (Species/Cell Type: Nonhuman, Assay Type: Sister-chromatid exchange (SCE) in vitro, Assay Code: SC2T, Evaluation Type: Evaluation B (Post-1980)) of the same compound?
**A.** no conclusion
